Data on one compound can be found in publication PMC5037631, “Identification and characterization of putative xylose and cellobiose transporters in Aspergillus nidulans” (Biotechnology for Biofuels, 2016).

This assay deals with T1, CltA (formerly XtrG; CltA::GFP) (Aspergillus nidulans, UniProt Q5ATN3).
T1 construct: gene ANIA_08347; full-length ORF from cDNA, GFP fusion, expressed in S. cerevisiae SC9721 with N. crassa beta-glucosidase gh1-1; plasma membrane
The experiment in a line: growth complementation of S. cerevisiae SC9721 gh1-1 on cellobiose. The format is cell-based. To be noted: 0.1-2 % cellobiose as sole carbon source, 30 °C; intracellular beta-glucosidase gh1-1 coexpressed.

T1 sequence (Q5ATN3 entry or part of it): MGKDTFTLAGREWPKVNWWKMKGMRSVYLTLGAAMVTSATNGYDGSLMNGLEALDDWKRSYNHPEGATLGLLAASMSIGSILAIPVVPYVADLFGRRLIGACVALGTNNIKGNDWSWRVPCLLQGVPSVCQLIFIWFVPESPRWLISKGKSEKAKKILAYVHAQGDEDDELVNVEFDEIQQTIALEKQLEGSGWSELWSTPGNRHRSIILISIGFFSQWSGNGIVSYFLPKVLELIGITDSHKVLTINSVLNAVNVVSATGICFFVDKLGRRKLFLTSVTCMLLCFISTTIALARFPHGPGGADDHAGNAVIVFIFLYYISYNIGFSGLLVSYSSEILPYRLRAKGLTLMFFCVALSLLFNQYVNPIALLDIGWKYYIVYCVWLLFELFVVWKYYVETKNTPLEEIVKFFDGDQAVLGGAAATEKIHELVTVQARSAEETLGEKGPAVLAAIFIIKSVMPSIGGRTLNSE

In the case of `OC[C@H]1O[C@@H](O[C@H]2[C@H](O)[C@@H](O)C(O)O[C@@H]2CO)[C@H](O)[C@@H](O)[C@@H]1O` (stereo partly shown) [cellobiose], the “growth complementation of S. cerevisiae SC9721 gh1-1 on cellobiose” value was “CltA, and to a lesser extent CltB, is able to transport cellobiose”.
